Measured values published in patent publication US7282339B2, “Competitive immunoassay” (Invitrogen Corporation, priority 2003, dated 2007).
Several values for one entry are separate records, joined by “and”; a condition that tells them apart may be missing. Identical values can stand only once.

Experiments:
[1] = system: ligand-detection complex of Compound 15 and P-Tyr-100 antiphosphotyrosine monoclonal antibody; test: Displacement of phosphotyramide-dye ligand analog by phosphotyrosine (Example 21); format: binding, mouse; conditions: 10 μM
Description: Solutions containing 100 nM ligand analog Compound 15 or ligand-detection complex (100 nM (B573-85-HCK)+100 nM P-Tyr-100 antiphosphotyrosine monoclonal antibody (Cell Signaling Technology, Beverly, Mass.)) were prepared in 50 mM Tris-HCl pH 7.5, 10 mM MgCl2, 0.01% Brij-35, 100 μM ATP, 2 mM DTT, 1 mM EGTA. Fluorescence emission spectra of these samples were recorded on a Hitach F-4500 spectrofluorometer using an excitation wavelength of 470 nm. O-phosho-L-tyrosine (Sigma Chemical Co., St. Louis, Mo.) or phosphotyrosine peptide (phospho-pp60 c-src (521-533); TSTEPQY*QPGENL, Bachem California, Inc. Torrance, Calif.) at a concentration of 10 μM were added to samples of the detection complex and the resulting change in fluorescence was measured. See, FIG. 13.

p-Tyr-100 antibody = test: Screening of phosphotyrosine ligand-binding antibodies with Compound 16 (Example 20); design: species or system mouse; conditions: compared with p-Tyr-69, p-Tyr-20 and 4G10 antibodies; 50 nM Compound 16
Description: A 4 mM stock of Compound 16 was made in 16% (v/v) DMSO. Three different antibodies were diluted to 1 μM in 50 mM MOPS, pH 7.2:1) p-Tyr-100 antibody (Cell Signaling Technology, catalog # 9411); 2) p-Tyr-69 antibody (BD Transduction Labs, catalog # 610430); 3) p-Tyr-20 antibody (BD Transduction Labs, catalog # 610000). A fourth antibody, the 4G10 antibody (Upstate Biotechnology, catalog # 05-321), was diluted to 400 nM in MOPS buffer. The antibodies were serially diluted in a microplate in 25 μl 50 mM MOPS, pH 7.2, buffer. 25 μl 100 nM Compound 16 in MOPS buffer was added to all wells. The fluorescence intensity was measured on an EnVision microplate reader (Perkin Elmer), PMT 1 gain 155, PMT 2 gain 187, excitation light 53%, 100 flashes at 9 mM height.

[2] = system: P-Tyr-100 mouse monoclonal anti-phosphotyrosine antibody; test: Efficacy of secondary antibody labels as FRET acceptors (Example 27); format: binding
Description: Solutions containing (A) 100 nM phosphotyramide ligand analog, (B) 100 nM phosphotyramide ligand analog complexed with 100 nM P-Tyr-100 mouse monoclonal anti-phosphotyrosine antibody and (C) 100 nM phosphotyramide ligand analog complexed with 100 nM P-Tyr-100 anti-phosphotyrosine antibody and 600 nM Fab fragments of goat anti-mouse IgG were prepared in 50 mM Tris-HC1, pH 7.5. Corresponding sets for solutions were prepared for Fab fragments labeled with three different dyes and an unlabeled control. Fluorescence intensities at 510 nm (excitation at 450 nm) were measured on a Hitachi F-4500 spectrofluorometer and were expressed as percentages of the intensity of the free phosphotyramide ligand sample (Table 5). […] Addition of a labeled secondary antibody produced a further decrease in intensity only in the case of the Alexa Fluor 555 labeling dye, which has spectral characteristics that are consistent with efficient fluorescence resonance energy transfer from the BODIPY FL phosphotyramide ligand (Compound 16).

Row | Molecule | displacement of phosphotyramide-dye ligand analog from antibody binding sites [1] | affinity of antibody for the ligand analog (p-Tyr-100 antibody) | fluorescence intensity at 510 nm, Sample C ([2]; 100 nM Compound 16 + 100 nM P-Tyr-100 + 600 nM Fab labeled Alexa Fluor 555 (DOS 3.8), percentages of Sample A) [percentages] | fluorescence intensity at 510 nm, Sample C ([2]; 100 nM Compound 16 + 100 nM P-Tyr-100 + 600 nM Fab labeled Alexa Fluor 594 (DOS 2.5), percentages of Sample A) [percentages] | fluorescence intensity at 510 nm, Sample C ([2]; 100 nM Compound 16 + 100 nM P-Tyr-100 + 600 nM Fab labeled Alexa Fluor 647 (DOS 2.8), percentages of Sample A) [percentages] | fluorescence intensity at 510 nm, Sample C ([2]; 100 nM Compound 16 + 100 nM P-Tyr-100 + 600 nM Fab, Unlabeled, percentages of Sample A) [percentages] | fluorescence intensity at 510 nm, Sample B ([2]; 100 nM Compound 16 + 100 nM P-Tyr-100, percentages of Sample A, excitation 450 nm) | fluorescence intensity at 510 nm, Sample A ([2]; 100 nM Compound 16 alone, reference set to 100, excitation 450 nm) [percentages] | decrease of fluorescence intensity on binding to the P-Tyr-100 antibody ([2]; 100 nM ligand analog + 100 nM P-Tyr-100)
1 | N[C@@H](Cc1ccc(OP(=O)(O)O)cc1)C(=O)O [Phosphotyrosine, O-phosho-L-tyrosine] | Minimal Displacement | – | – | – | – | – | – | – | –
2 | BODIPY FL phosphotyramide [Compound 16] | – | highest affinity | 36 | 48 | 47 | 51 | 49 percentages and 51 percentages and 53 percentages | 100 | approximately 50%
